Data on one compound can be found in PMC6691805 (Journal of Enzyme Inhibition and Medicinal Chemistry, 2019).

Molecules are shown by their SMILES.

The experiment has as its target T1, 17β-HSD1 (Homo sapiens, UniProt P14061).
T1 sequence (P14061 1-328): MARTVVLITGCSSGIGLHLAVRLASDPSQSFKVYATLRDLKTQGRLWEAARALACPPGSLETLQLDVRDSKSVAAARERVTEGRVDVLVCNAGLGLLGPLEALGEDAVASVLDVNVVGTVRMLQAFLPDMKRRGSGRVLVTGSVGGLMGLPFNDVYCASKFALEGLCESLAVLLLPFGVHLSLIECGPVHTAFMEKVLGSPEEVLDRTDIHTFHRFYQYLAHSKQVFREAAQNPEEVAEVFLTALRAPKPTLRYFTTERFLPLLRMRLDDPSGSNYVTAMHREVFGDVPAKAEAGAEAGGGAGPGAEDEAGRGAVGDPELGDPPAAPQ
It is filed as biochemical.

As to `COC(=O)CO[C@@H]1CC(=O)[C@@]2(C)CC[C@@H]3c4ccc(OCc5ccccc5)cc4CC[C@H]3[C@H]12` [Compound 22, 3-Benzyloxy-15β-(2’-methoxy-2’-oxoethoxy)-estra-1,3,5(10)-trien-17-one], where the note is “cofactor preference for NADPH in terms of RIP values”, the “cofactor preference in terms of RIP values, favouring the NADPH bound enzyme” value is 2–11 fold. Also, for the setting “evaluation of potentials obtained with NADPH”, the “17β-HSD1 inhibitory effect (in words)” value is on record as “potent inhibitors”.
